Results from US9956204B2, “Composition for exterminating scuticociliates in fish including mebendazole” (NATIONAL INSTITUTE OF FISHERIES SCIENCE, priority 2016, dated 2018).

Tests used:
scuticociliates [1] = assay: Field test of Mebendazole for exterminating scuticociliates in olive flounder farms; assay type: in vivo
Text: The pharmaceutical efficacy was investigated after administering Mebendazole once daily for 5˜7 days to the olive flounder which are infected with scuticociliates in three major domestic olive flounder aquaculture area (Jeju, Wando, Pohang). First, the natural scuticociliates infection rate of each olive flounder farm was investigated, and the efficacy was investigated after administering Mebendazole accordingly. [table]

[2] = in vivo
Description: (§1) Mebendazole was orally or immersing administered at a concentration of 100 or 500 mg/kg BW (ppm) to the olive flounder once for 1 hour. After 6 hours, 1 day, 2 days, 7 days and 14 days, a blood chemistry analysis and an immunological analysis were conducted.
(§2) The blood chemistry analysis was conducted using Fuji-Dri Chem 4500 (Fuji company, Japan) to measure hemoglobin (Hb), hematocrit (Ht), glucose (GLU), total protein (TP), total cholesterol (TCHO), GOT/GPT and lactic acid (LDH), etc.

scuticociliates [3] = assay: Clinical trial: cumulative mortality of olive flounder artificially infected with scuticociliates; assay type: in vivo; conditions: observed for 15 days
Description: For the artificial infection, 1×10^5 of scuticociliates per fish were intraperitoneally injected into a total of […] juvenile olive flounder (average 10 cm). The experiment was performed by dividing them into 5 groups of every 20 fish per each experiment.

scuticociliates [4] = assay: Scuticociliates extermination effect of candidate substances in seawater medium; assay type: cell-based; conditions: seawater medium; for Survival or Death of scuticociliates (activity and shape, microscope): 4 hour
Procedure, shortened: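 Scuticociliates grown on CHSE-214 cells in MEM, then moved into sterilized or artificial seawater (20‰). Ciliates plated at 1×10^5 per well for 30 min before adding compounds diluted in seawater. Exposure lasted 4 h.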

[5] = Safety test according to field test: blood chemistry in Wando, Pohang and Jeju farms; conditions: field application concentration range
Description: as §1, §2

[6] = within 24~48 hours; cited from earlier work
lysozyme = conditions: in vivo
Description: as §1
The immunological analysis was conducted to measure the lysozyme activity of the kidney, spleen and serum (Lange et al., 2001, Parry, R. M. Chandau, R. C. & Shahani, R. M. (1965). A rapid and sensitive assay of muramidase. Proceedings of the Society for Experimental Biology Medicine 119, 384-386). In brief explanation, 100 μl of the prepared plasma was diluted with PBS (pH 6.2) in 2-fold to 4 steps on a 96-well plate and 100 μg of Micrococcus lysodekiticus (Sigma, USA) liquid diluted with PBS (pH 6.2) to 0.4 mg/ml was added to each well. After that, absorbance at 590 nm was measured every 0, 15, 30, 45 and 60 minutes. One unit of lysozyme activity was converted into the amount of a sample that decreases the absorbance 0.001/min.

scuticociliates [7] = assay: Scuticociliates extermination effect of candidate substances in MEM medium; assay type: cell-based; conditions: MEM medium
Procedure, shortened: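 Scuticociliates grown 3 days on CHSE-214 cells in MEM at 22 °C, then 1×10^5 parasites per well mixed with diluted candidate substances to 200 μl final volume. Antiparasitic effect judged by measured scuticociliate activity.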

SMILES: COC(=O)Nc1nc2ccc(C(=O)c3ccccc3)cc2[nH]1 [Mebendazole]
- infection of scuticociliates after administration (scuticociliates [1]; Juju farm, once daily for 5 days, infection rate before 50%): no infection of scuticociliates was detected
- infection of scuticociliates after administration (scuticociliates [1]; Pohang farm, once daily for 7 days, infection rate before 70%): no infection of scuticociliates was detected
- infection of scuticociliates after administration (scuticociliates [1]; Wando farm, once daily for 7 days, infection rate before 70%): no infection of scuticociliates was detected
- MCHC numerical values [2]: did not show any significant differences
- concentration of Hb in the blood [2]: slightly increases
- cumulative mortality rate (scuticociliates [3]; immersion administration 100 ppm for 1 hour): remarkably decreased
- cumulative mortality rate (scuticociliates [3]; oral administration once, feed with 200 ppm): remarkably decreased
- killing of scuticociliates compared with the 19 candidate substances (scuticociliates [4]): most effectively kills scuticociliates
- Survival or Death of scuticociliates (activity and shape, microscope) (scuticociliates [4]; Dosage 10 ppm): Survival
- Survival or Death of scuticociliates (activity and shape, microscope) (scuticociliates [4]; Dosage 50 ppm): Survival
- Survival or Death of scuticociliates (activity and shape, microscope) (scuticociliates [4]; Dosage 100 ppm): Death
- Survival or Death of scuticociliates (activity and shape, microscope) (scuticociliates [4]; Dosage 200 ppm): Death
- Survival or Death of scuticociliates (activity and shape, microscope) (scuticociliates [4]; Dosage 300 ppm): Death
- Survival or Death of scuticociliates (activity and shape, microscope) (scuticociliates [4]; Dosage 400 ppm): Death
- Survival or Death of scuticociliates (activity and shape, microscope) (scuticociliates [4]; Dosage 500 ppm): Death
- Survival or Death of scuticociliates (activity and shape, microscope) (scuticociliates [4]; Dosage 600 ppm): Death
- Survival or Death of scuticociliates (activity and shape, microscope) (scuticociliates [4]; Dosage 700 ppm): Death
- Survival or Death of scuticociliates (activity and shape, microscope) (scuticociliates [4]; Dosage 800 ppm): Death
- Survival or Death of scuticociliates (activity and shape, microscope) (scuticociliates [4]; Dosage 900 ppm): Death
- Survival or Death of scuticociliates (activity and shape, microscope) (scuticociliates [4]; Dosage 1000 ppm): Death
- liver index (GOT and GPT) of infected fish after administration [5]: lowered to the normal range
- oral dose excreted in the urine [6]: 10%
- effect on activity of lysozyme in serum, spleen, kidney (lysozyme): does not affect the activity of lysozyme
- killing of scuticociliates compared with the 19 candidate substances (scuticociliates [7]): effect of killing scuticociliates at the lowest concentration
- Survival or Death of scuticociliates (activity and shape, microscope) (scuticociliates [7]; Dosage 10 ppm): Survival
- Survival or Death of scuticociliates (activity and shape, microscope) (scuticociliates [7]; Dosage 50 ppm): Survival
- Survival or Death of scuticociliates (activity and shape, microscope) (scuticociliates [7]; Dosage 100 ppm): Death
- Survival or Death of scuticociliates (activity and shape, microscope) (scuticociliates [7]; Dosage 200 ppm): Death
- Survival or Death of scuticociliates (activity and shape, microscope) (scuticociliates [7]; Dosage 300 ppm): Death
- Survival or Death of scuticociliates (activity and shape, microscope) (scuticociliates [7]; Dosage 400 ppm): Death
- Survival or Death of scuticociliates (activity and shape, microscope) (scuticociliates [7]; Dosage 500 ppm): Death
- Survival or Death of scuticociliates (activity and shape, microscope) (scuticociliates [7]; Dosage 600 ppm): Death
- Survival or Death of scuticociliates (activity and shape, microscope) (scuticociliates [7]; Dosage 700 ppm): Death
- Survival or Death of scuticociliates (activity and shape, microscope) (scuticociliates [7]; Dosage 800 ppm): Death
- Survival or Death of scuticociliates (activity and shape, microscope) (scuticociliates [7]; Dosage 900 ppm): Death
- Survival or Death of scuticociliates (activity and shape, microscope) (scuticociliates [7]; Dosage 1000 ppm): Death
